In experiment [1] the test system is human lung carcinoma SKMES. Put plainly: MTT growth inhibitory assay, SKMES. It counts as cell-based. For orientation: Formazan colour is commonly taken as a measure of viable cells.
Procedure: (§3) One of the growth inhibitory assays is the MTT assay. Cells (1000-1500 cells/well) are seeded in a 96-well micro culture plate in a total volume of 100 μl/well. After overnight incubation in a humidified incubator at 37° C. with 5% CO2-95% air, chemotherapeutic drug solutions diluted with culture medium at various concentrations are added in the amount of 100 μl to each well. The plates are placed in a humidified incubator at 37° C. with 5% CO2-95% air for 7-10 days. The plates are then centrifuged briefly and 100 μl of the growth medium is removed. Cell cultures are incubated with 50 μl of MTT [3-(4,5-dimethylthiazol-2-yl)-2,5-diphenyl-tetrazolium bromide] reagent (1 mg/ml in Dulbecco's phosphate-buffered saline) for 4 hr at 37° C. The resultant purple formazan precipitate is solubilized with 200 μl of 0.04 N HCl in isopropanol. Absorbance is measured at a wavelength of 595 nm and at a reference wavelength of 655 nm using a Bio-Rad Model 3550 Microplate Reader. Preferably, all tests are run in duplicate for each dose level.
(§4) The EZED50 computer program estimates the concentration of agent that inhibits cell growth by 50% as compared to the control cells. This is termed the IC50 and is determined by curve fitting test data using the following four logistic equation. [formula]
(§5) Inhibitory assay testing is also used to determine enhanced therapeutic effects from combining A3 receptor antagonists with other tumor inhibiting agents. The inhibitory cell growth assays are run with and without selected concentrations of A3 receptor antagonists. An enhanced therapeutic effect is present when the IC50 of the tumor inhibiting agent is lower with the A3 receptor antagonist.
(§6) Quantitatively, the enhancement factor (EF) is calculated by dividing the IC50 value of the tumor inhibiting agent for a tumor cell line by the IC50 value of the agent with A3 receptor antagonist for the same cell line: [formula]
The test system of the next experiment is A375 melanoma cells. The experiment in a line: Colony formation assay of A375 cells. It counts as cell-based, human. The conditions noted are these: paclitaxel 0.75 ng/ml alone, 7 days. Here is the method:
FIG. 2 illustrates colony formation assay of A375 cells. Cells were treated with different drugs and colonies were counted after 7 days. The values represent the mean ±SEM of four independent experiments. D=DMSO (control); T=paclitaxel, 0.75 ng/ml; M=MRE 3008F20, 10 μM; C=CI-IB-MECA, 10 μM; TM=paclitaxel plus MRE 3008F20; TC=paclitaxel plus CI-IB-MECA treated cells. *P<0.01 TM versus T. Analysis was by ANOVA followed by Dunnett's test.;
Control plates received the same volume of DMSO alone. After 7 days of growth at 37° C. in humidified atmosphere containing 5% CO2, the cells were fixed with absolute methanol for 5′ and stained with 1/10 Giemsa/phosphate-buffered saline (PBS) staining solution for 10 minutes. Staining solution was removed and colonies of greater than 30 cells were scored as survivors. For each treatment, six individual wells were scored.
Colony formation assay experiments were performed on A375 melanoma cells treated with increasing concentration of paclitaxel (0.25-75 ng/ml). A3 stimulation is achieved with the selective agonist CI-IB-MECA while A3 blockade is obtained with the selective antagonist MRE 3008F20. […] (FIG. 2)

A further experiment has as its system A375 cells. The experiment in a line: Flow cytometry (PI) G2/M accumulation and sub-G1 apoptosis, A375. In kind it is cell-based, human. Here is the method: (§1) A375 and NCTC2544 adherent cells were trypsinized, mixed with floating cells, washed with PBS and permeabilised in 70% (vol/vol) ethanol/PBS solution at 4° C. for at least 24 hours. Jurkat, HeL023 and PBMC cells were centrifuged for 10 minutes at 1000×g. The cell pellet was then resuspended and permeabilised in 70% (vol/vol) ethanol/PBS solution at 4° C. for at least 24 hours. The cells were washed with PBS and the DNA was stained with a PBS solution, containing 20 μg/ml of propidium iodide and 100 μg/ml of RNAse, at room temperature for 30 minutes. Cells were analysed by FACScan (Becton-Dickinson) and the content of DNA was evaluated by the Cell-LISYS program (Becton-Dickinson). Cell distribution among cell cycle phases and apoptotic cells was evaluated as previously described (Secchiero et al., 2001). Briefly, the cell cycle distribution is shown as the percentage of cells containing 2n (G1 phase), 4n (G2 and M phases), 4n>x>2n. DNA amount (S phase) judged by propidium iodide staining. The apoptotic population is the percentage of cells with DNA content lower than 2n.
Cell proliferation and apoptosis are quantified by flow cytometer analysis after propidium-iodide (PI) DNA staining.
(In general: A flow cytometer gives signals particle by particle.)

In experiment [2] the test system is human pancreatic cancer Panc-1. Put plainly: MTT growth inhibitory assay, Panc-1. In kind it is cell-based.
Procedure: as §3, §4, §5, §6
Experiment [3] relates to human colon carcinoma HT29 cell line. Put plainly: MTT growth inhibitory assay, HT29. It counts as cell-based. As to conditions: HT-29.
Procedure: as §3, §4, §5, §6
The next experiment concerns HeL023 cells. The experiment in a line: Flow cytometry (PI) G2/M accumulation and sub-G1 apoptosis, HeL023. As to conditions: DMSO (no antagonist). It counts as cell-based, human. Here is the method:
as §1
(§2) To verify the role of A3 receptor antagonists on paclitaxel and vindesine mediated alteration of cell proliferation and apoptosis, testing was performed with additional cell lines. […] Experimental conditions are similar to those for the A375 cell testing.

For a further experiment, the system named is PBMC blasts. Put plainly: Flow cytometry (PI) G2/M accumulation, PBMC blasts. As to conditions: Homo sapiens, DMSO (no antagonist), read-out: paclitaxel EC50 (G2/M accumulation). It counts as cell-based.
Experiment [4] relates to human melanoma A375 cell line. The experiment in a line: MTT growth inhibitory assay, A375. It counts as cell-based. As to conditions: for IC50: Homo sapiens.
Procedure: as §3, §4, §5, §6
The test system of the next experiment is Jurkat cells. The experiment in a line: Flow cytometry (PI) G2/M accumulation and sub-G1 apoptosis, Jurkat. In kind it is cell-based, human. As to conditions: DMSO (no antagonist). Here is the method: as §1, §2
Another experiment deals with NCTC2544 cells. The experiment in a line: Flow cytometry (PI) G2/M accumulation and sub-G1 apoptosis, NCTC2544. As to conditions: NCTC 2544, DMSO (no antagonist). It counts as cell-based, human. Here is the method: as §1, §2
[5] abbreviates: Homo sapiens, read-out: paclitaxel EC50 (G2/M accumulation).

In brackets after ≈: the same amount, converted by molar mass. Where two headings read alike, the source gives them in different places.

Procedure for PBMC blasts: Cells are passaged two or three times weekly at a ratio between 1:5 and 1:10. Lymphocytes were isolated from buffy coats kindly provided by the Blood Bank of the University Hospital of Ferrara. Blood donated by healthy volunteers, after informed consent for research was obtained. Lymphocytes were isolated by density gradient centrifugation (Ficoll/Histopaque 1.077 g/ml). The cells are stimulated with purified phytohemoagglutinin (1 μg/ml) and expanded in RPMI medium added of interleukin 2 (20 Units/ml) and 10% fetal calf serum.
Jurkat, HeL023 and PBMC cells were centrifuged for 10 minutes at 1000×g. The cell pellet was then resuspended and permeabilised in 70% (vol/vol) ethanol/PBS solution at 4° C. for at least 24 hours. The cells were washed with PBS and the DNA was stained with a PBS solution, containing 20 μg/ml of propidium iodide and 100 μg/ml of RNAse, at room temperature for 30 minutes. Cells were analysed by FACScan (Becton-Dickinson) and the content of DNA was evaluated by the Cell-LISYS program (Becton-Dickinson). Cell distribution among cell cycle phases and apoptotic cells was evaluated as previously described (Secchiero et al., 2001). Briefly, the cell cycle distribution is shown as the percentage of cells containing 2n (G1 phase), 4n (G2 and M phases), 4n>x>2n. DNA amount (S phase) judged by propidium iodide staining. […]

For orientation: IC50 means the concentration needed to halve the response being measured. Turning to `CC(=O)O[C@H]1C(=O)[C@@]2(C)[C@H]([C@H](OC(=O)c3ccccc3)[C@]3(O)C[C@H](OC(=O)[C@H](O)[C@@H](NC(=O)c4ccccc4)c4ccccc4)C(C)=C1C3(C)C)[C@]1(OC(C)=O)CO[C@@H]1C[C@@H]2O` [paclitaxel], the IC50 in experiment [1] (Homo sapiens, SKMES, paclitaxel 0.0001-0.05 μg/ml, alone, read-out: IC50 of paclitaxel, A3 antagonist none) turned out to be 3.3 ng/mL (≈ 3.86 nM); in experiment [1] (Human Lung Carcinoma SKMES, read-out: IC50 growth inhibition, agent used separately) it was 2.6 ± 0.7 ng/mL (≈ 3.04 nM); in experiment [2] (Homo sapiens, Panc-1, paclitaxel 0.0001-0.05 μg/ml, alone, read-out: IC50 of paclitaxel, A3 antagonist none), 2.9 ng/mL (≈ 3.4 nM); in [2] (Human Pancreatic Cancer Panc-1, read-out: IC50 growth inhibition, agent used separately), 2.7 ± 0.3 ng/mL (≈ 3.16 nM); in [3] (Human Colon Carcinoma HT29, read-out: IC50 growth inhibition, agent used separately), 1.12 ± 0.3 ng/mL (≈ 1.31 nM); in experiment [3] (Homo sapiens, HT29, paclitaxel 0.0001-0.05 μg/ml, alone, read-out: IC50 of paclitaxel, A3 antagonist none), 2.5 ng/mL (≈ 2.93 nM). In addition, the half-maximal inhibitory concentration (IC50) amounted to 4.4 ng/mL (≈ 5.15 nM) in experiment [4] (A-375, A375, paclitaxel 0.0001-0.05 μg/ml, alone (control of each antagonist series), read-out: IC50 of paclitaxel, A3 antagonist none); 4.6 ng/mL (≈ 5.39 nM) in experiment [4] (A-375, A375, paclitaxel 0.0002-0.1 μg/ml, alone, read-out: IC50 of paclitaxel, A3 antagonist none); 4 ± 0.2 ng/mL (≈ 4.68 nM) in experiment [4] (A-375, Human Melanoma A375, read-out: IC50 growth inhibition, agent used separately). The “colony formation, % of the control” value with A375 melanoma cells came to 64%. Also, in the experiment on A375 cells (A375, DMSO (no antagonist)), the “paclitaxel ECMAX (sub-G1, maximal apoptosis)” value is 6.00 ± 0.63 ng/mL. Further, the EC50 came to 0.0166 ± 0.002 µg/mL (≈ 19.4 nM) in the experiment with A375 cells (Homo sapiens, A-375, 24 h, read-out: paclitaxel EC50 (G2/M accumulation)); 0.0506 ± 0.0053 µg/mL (≈ 59.3 nM) with HeL023 cells (setting [5]); 5.3 ± 0.6 ng/mL (≈ 6.21 nM) in the experiment on PBMC blasts; 2.96 ± 0.31 ng/mL (≈ 3.47 nM) in the experiment on Jurkat cells (setting [5]); 2.69 ± 0.28 ng/mL (≈ 3.15 nM) in the experiment with NCTC2544 cells (setting [5]). Moreover, the “paclitaxel ECMAX (sub-G1)” value amounted to 33.42 ± 3.55 ng/mL with HeL023 cells, 3.32 ± 0.52 ng/mL in the experiment on Jurkat cells and 2.69 ± 0.23 ng/mL with NCTC2544 cells. Further, the “IC50 of paclitaxel, A3 antagonist none” value in experiment [4] (A375, paclitaxel 0.0001-0.05 μg/ml, alone (control of each antagonist series)) turned out to be 4.2 ng/mL.

Values taken from patent US20040067932A1 (priority 2002, published 2004).
